Reference: ChEMBL document CHEMBL1154707, “Morpholine derivatives greatly enhance the selectivity of mammalian target of rapamycin (mTOR) inhibitors” (J Med Chem, 2009)

Key:
[1] = Selectivity for FLAG-tagged human mTOR over PI3Kalpha
[2] = target: Serine/threonine-protein kinase mTOR (Homo sapiens, UniProt P42345); assay: Inhibition of FLAG-tagged human mTOR by DELFIA method
LNCaP = assay: Growth inhibition of human LNCAP cells after 3 days by MTS method; format: functional, cell-based; settings: 72 h
[3] = target: Phosphatidylinositol 4,5-bisphosphate 3-kinase catalytic subunit alpha isoform (Homo sapiens, UniProt P42336); assay: Inhibition of PI3Kalpha
Sequence of Phosphatidylinositol 4,5-bisphosphate 3-kinase catalytic subunit alpha isoform (P42336 whole entry, canonical isoform): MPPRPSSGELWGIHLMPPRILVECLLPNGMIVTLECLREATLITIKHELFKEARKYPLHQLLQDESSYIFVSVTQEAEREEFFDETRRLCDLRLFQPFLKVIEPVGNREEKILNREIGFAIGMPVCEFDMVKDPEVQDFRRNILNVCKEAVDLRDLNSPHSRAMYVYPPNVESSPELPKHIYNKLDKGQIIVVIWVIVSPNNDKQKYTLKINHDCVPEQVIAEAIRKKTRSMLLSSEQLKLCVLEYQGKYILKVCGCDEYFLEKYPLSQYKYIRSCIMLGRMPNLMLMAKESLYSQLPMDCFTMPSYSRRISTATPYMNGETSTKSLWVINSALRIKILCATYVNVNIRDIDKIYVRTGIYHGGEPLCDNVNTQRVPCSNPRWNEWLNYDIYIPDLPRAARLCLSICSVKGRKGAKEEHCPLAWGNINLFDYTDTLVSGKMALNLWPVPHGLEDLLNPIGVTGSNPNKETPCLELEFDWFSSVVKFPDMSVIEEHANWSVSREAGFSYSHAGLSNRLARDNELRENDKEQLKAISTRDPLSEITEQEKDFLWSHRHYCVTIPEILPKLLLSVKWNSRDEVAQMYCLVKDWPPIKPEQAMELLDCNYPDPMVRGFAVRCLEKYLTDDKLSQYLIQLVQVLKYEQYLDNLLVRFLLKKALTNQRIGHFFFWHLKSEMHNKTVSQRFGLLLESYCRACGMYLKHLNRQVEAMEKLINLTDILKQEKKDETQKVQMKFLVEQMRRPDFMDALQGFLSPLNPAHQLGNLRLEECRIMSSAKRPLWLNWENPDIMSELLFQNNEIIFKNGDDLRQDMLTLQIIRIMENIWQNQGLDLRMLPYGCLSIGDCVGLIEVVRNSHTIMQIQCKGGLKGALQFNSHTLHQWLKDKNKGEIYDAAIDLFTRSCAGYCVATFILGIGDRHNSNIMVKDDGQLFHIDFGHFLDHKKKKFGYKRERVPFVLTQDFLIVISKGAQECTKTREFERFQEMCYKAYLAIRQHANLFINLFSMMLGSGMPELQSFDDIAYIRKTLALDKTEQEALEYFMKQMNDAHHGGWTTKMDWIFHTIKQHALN

[4] = target: T1, Phosphatidylinositol 4,5-bisphosphate 3-kinase catalytic subunit delta isoform (Homo sapiens, UniProt O00329); assay: Inhibition of PI3Kdelta
T1 sequence (O00329 whole entry): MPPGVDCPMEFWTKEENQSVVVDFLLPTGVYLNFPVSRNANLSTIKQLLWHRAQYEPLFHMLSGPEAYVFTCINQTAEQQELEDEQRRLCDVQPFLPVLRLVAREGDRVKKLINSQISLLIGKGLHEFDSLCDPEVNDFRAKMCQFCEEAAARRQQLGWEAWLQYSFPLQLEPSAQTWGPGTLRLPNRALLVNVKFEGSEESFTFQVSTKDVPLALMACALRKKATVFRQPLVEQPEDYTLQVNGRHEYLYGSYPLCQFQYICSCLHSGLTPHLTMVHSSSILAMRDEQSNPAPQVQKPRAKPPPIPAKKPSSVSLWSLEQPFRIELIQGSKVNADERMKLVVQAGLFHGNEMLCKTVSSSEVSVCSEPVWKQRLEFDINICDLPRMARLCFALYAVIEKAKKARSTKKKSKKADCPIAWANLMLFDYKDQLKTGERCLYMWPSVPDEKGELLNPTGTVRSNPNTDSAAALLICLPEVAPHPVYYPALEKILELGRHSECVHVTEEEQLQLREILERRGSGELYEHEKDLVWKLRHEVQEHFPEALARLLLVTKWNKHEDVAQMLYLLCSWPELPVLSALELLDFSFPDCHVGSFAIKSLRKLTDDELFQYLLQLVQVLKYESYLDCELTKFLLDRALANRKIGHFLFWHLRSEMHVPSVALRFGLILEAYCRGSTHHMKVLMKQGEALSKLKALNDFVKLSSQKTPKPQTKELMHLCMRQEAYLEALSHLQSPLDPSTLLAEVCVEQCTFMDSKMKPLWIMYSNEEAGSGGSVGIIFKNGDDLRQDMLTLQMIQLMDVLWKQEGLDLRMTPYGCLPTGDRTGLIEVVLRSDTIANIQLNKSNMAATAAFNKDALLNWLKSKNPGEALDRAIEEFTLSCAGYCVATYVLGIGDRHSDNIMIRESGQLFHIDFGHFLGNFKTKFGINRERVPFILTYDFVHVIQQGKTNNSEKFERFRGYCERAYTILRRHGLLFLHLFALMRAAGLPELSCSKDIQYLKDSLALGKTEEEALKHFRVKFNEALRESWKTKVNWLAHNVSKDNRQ

[5] = target: Phosphatidylinositol 4,5-bisphosphate 3-kinase catalytic subunit beta isoform (Homo sapiens, UniProt P42338); assay: Inhibition of PI3Kbeta
Sequence of Phosphatidylinositol 4,5-bisphosphate 3-kinase catalytic subunit beta isoform (P42338 whole entry, canonical isoform): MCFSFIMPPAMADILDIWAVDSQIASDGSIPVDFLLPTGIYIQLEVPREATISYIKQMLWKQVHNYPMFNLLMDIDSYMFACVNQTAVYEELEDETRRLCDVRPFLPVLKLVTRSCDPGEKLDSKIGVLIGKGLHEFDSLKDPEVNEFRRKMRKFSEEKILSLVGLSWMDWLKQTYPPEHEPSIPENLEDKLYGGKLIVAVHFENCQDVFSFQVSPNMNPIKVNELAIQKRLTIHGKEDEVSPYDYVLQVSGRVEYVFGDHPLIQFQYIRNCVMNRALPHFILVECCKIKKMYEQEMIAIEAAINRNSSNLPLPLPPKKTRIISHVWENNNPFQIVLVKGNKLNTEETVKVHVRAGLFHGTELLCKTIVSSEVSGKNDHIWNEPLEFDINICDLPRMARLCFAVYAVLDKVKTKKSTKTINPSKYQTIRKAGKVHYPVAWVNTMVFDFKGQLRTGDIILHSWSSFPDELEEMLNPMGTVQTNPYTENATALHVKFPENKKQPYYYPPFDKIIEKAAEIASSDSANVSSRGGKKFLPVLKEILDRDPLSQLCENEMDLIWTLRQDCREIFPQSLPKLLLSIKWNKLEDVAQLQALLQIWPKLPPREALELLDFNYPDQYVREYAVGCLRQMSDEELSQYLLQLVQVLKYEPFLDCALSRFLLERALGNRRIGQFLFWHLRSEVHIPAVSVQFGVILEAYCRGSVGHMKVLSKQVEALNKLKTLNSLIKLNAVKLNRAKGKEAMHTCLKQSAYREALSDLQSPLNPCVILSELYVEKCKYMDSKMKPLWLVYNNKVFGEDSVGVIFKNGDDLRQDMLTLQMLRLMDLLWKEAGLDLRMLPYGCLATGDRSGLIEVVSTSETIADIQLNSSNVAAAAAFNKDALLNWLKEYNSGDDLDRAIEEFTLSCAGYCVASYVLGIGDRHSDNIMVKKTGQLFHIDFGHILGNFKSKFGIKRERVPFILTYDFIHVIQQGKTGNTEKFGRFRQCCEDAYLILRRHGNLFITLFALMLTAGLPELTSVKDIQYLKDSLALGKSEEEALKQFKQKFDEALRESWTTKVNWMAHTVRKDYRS

SMILES	Ratio IC50 [1]	IC50 [2]	also measured
CNC(=O)Nc1ccc(-c2nc(N3CCOCC3)c3cnn(CC(F)(F)F)c3n2)cc1	194		
O=C(Nc1ccc(-c2nc(N3CC4CCC(C3)O4)c3cnn(CC(F)(F)F)c3n2)cc1)Nc1cccnc1	1820	0.19 nM	
COC(=O)N1CCC(n2ncc3c(N4CCOCC4)nc(-c4ccc(NC(=O)Nc5cccnc5)cc4)nc32)CC1	175		
O=C(Nc1ccc(-c2nc(N3C[C@@H]4C[C@H]3CO4)c3cnn(CC(F)(F)F)c3n2)cc1)Nc1cccnc1	482	1.2 nM	
O=C(Nc1ccc(-c2nc(N3C[C@H]4C[C@@H]3CO4)c3cnn(CC(F)(F)F)c3n2)cc1)Nc1cccnc1	114		
CNC(=O)Nc1ccc(-c2nc(N3C[C@@H]4C[C@H]3CO4)c3cnn(CC(F)(F)F)c3n2)cc1	380		
CNC(=O)Nc1ccc(-c2nc(N3C4CCC3COC4)c3cnn(CC(F)(F)F)c3n2)cc1	2420		
CNC(=O)Nc1ccc(-c2nc(N3C4CCC3COC4)c3cnn(C4CCN(C(=O)OC)CC4)c3n2)cc1	19400		
O=C(Nc1ccc(-c2nc(N3CCOCC3)c3cnn(CC(F)(F)F)c3n2)cc1)Nc1cccnc1	43	0.23 nM	
CNC(=O)Nc1ccc(-c2nc(N3C[C@H]4C[C@@H]3CO4)c3cnn(CC(F)(F)F)c3n2)cc1	51		
CNC(=O)Nc1ccc(-c2nc(N3CCOC(C)C3)c3cnn(C4CCN(C(=O)OC)CC4)c3n2)cc1 (stereo unspecified)	116	2.3 nM	
CCOC(=O)N1CCC(n2ncc3c(N4CCOC[C@H]4C)nc(-c4ccc(NC(=O)NCCF)cc4)nc32)CC1	3670	1.2 nM	
CCNC(=O)Nc1ccc(-c2nc(N3CC4CCC(C3)O4)c3cnn(C4CCN(C(=O)OC)CC4)c3n2)cc1	26700	0.2 nM	IC50 (LNCaP): 9 nM
COC(=O)N1CCC(n2ncc3c(N4CC5CCC(C4)O5)nc(-c4ccc(NC(=O)NC5CC5)cc4)nc32)CC1	6910	0.62 nM	IC50 [3]: 4320 nM; IC50 [4]: 2630 nM; IC50 [5]: > 10000 nM
COC(=O)N1CCC(n2ncc3c(N4CCOC(C)C4)nc(-c4ccc(NC(=O)Nc5cccnc5)cc4)nc32)CC1 (stereo unspecified)	135		
CCNC(=O)Nc1ccc(-c2nc(N3CCOC(C)C3)c3cnn(C4CCN(C(=O)OC)CC4)c3n2)cc1 (stereo unspecified)	360	1.9 nM	
O=C(Nc1ccc(-c2nc(N3C[C@H]4C[C@@H]3CO4)c3cnn(CC(F)(F)F)c3n2)cc1)NC1CC1	179		

SMILES	Ratio IC50 [1]	IC50 [2]	also measured
CCNC(=O)Nc1ccc(-c2nc(N3CCOC[C@@H]3C)c3cnn(C4CCN(C(=O)OCC)CC4)c3n2)cc1	307	1.8 nM	
CCOC(=O)N1CCC(n2ncc3c(N4CCOC[C@@H]4C)nc(-c4ccc(NC(=O)Nc5ccncc5)cc4)nc32)CC1	32	0.58 nM	
CCOC(=O)N1CCC(n2ncc3c(N4CCOC[C@H]4C)nc(-c4ccc(NC(=O)Nc5ccncc5)cc4)nc32)CC1	1850		
O=C(NCCF)Nc1ccc(-c2nc(N3CCOCC3)c3cnn(CC(F)(F)F)c3n2)cc1	524		
O=C(Nc1ccc(-c2nc(N3C[C@@H]4C[C@H]3CO4)c3cnn(CC(F)(F)F)c3n2)cc1)NC1CC1	2170	1.9 nM	
CCOC(=O)N1CCC(n2ncc3c(N4CCOC[C@@H]4C)nc(-c4ccc(NC(=O)NCCF)cc4)nc32)CC1	289	1.8 nM	
CCNC(=O)Nc1ccc(-c2nc(N3CCOC[C@H]3C)c3cnn(C4CCN(C(=O)OCC)CC4)c3n2)cc1	4980		
CCNC(=O)Nc1ccc(-c2nc(N3C4CCC3COC4)c3cnn(C4CCN(C(=O)OC)CC4)c3n2)cc1	8890		
CNC(=O)Nc1ccc(-c2nc(N3CC4CCC(C3)O4)c3cnn(CC(F)(F)F)c3n2)cc1	3230	0.5 nM	
O=C(Nc1ccc(-c2nc(N3C4CCC3COC4)c3cnn(CC(F)(F)F)c3n2)cc1)Nc1cccnc1	1140		
COC(=O)N1CCC(n2ncc3c(N4C5CCC4COC5)nc(-c4ccc(NC(=O)Nc5cccnc5)cc4)nc32)CC1	11100	0.16 nM	
CNC(=O)Nc1ccc(-c2nc(N3CC4CCC(C3)O4)c3cnn(C4CCN(C(=O)OC)CC4)c3n2)cc1	8010	0.22 nM	
O=C(NCCF)Nc1ccc(-c2nc(N3CC4CCC(C3)O4)c3cnn(CC(F)(F)F)c3n2)cc1	11900	0.23 nM	
CNC(=O)Nc1ccc(-c2nc(N3CC4CCC(C3)O4)c3cnn(C4CCN(Cc5cccnc5)CC4)c3n2)cc1	1410	0.48 nM	
CCNC(=O)Nc1ccc(-c2nc(N3CCOCC3)c3cnn(C4CCN(C(=O)OCC)CC4)c3n2)cc1	4140	0.17 nM	
COC(=O)N1CCC(n2ncc3c(N4CC5CCC(C4)O5)nc(-c4ccc(NC(=O)Nc5cccnc5)cc4)nc32)CC1	5580	0.11 nM	
